According to the OligoGym collection:
HELM strings list units from the 5' end as sugar, base in round brackets, then linkage (d deoxyribose, r ribose, m 2'-O-methyl, p phosphodiester). [sp] = phosphorothioate linkage

What was measured:
CTNNB1 [1] = experiment: HEK293-TLR7, 100 nM ASO, then resiquimod
CTNNB1 [2] = experiment: HEK293-TLR8, 100 nM ASO, then resiquimod

Substance	TLR7 signal (NF-kB luciferase) (% of resiquimod alone) (CTNNB1 [1])	TLR8 potentiation (NF-kB luciferase) (fold of resiquimod alone) (CTNNB1 [2])
RNA1{m(A)[sp].m(C)[sp].m(U)[sp].m(G)[sp].m(U)[sp].d(G)[sp].d(T)[sp].d(A)[sp].d(G)[sp].d(A)[sp].d(T)[sp].d(G)[sp].d(G)[sp].d(G)[sp].d(A)[sp].m(U)[sp].m(C)[sp].m(U)[sp].m(G)[sp].m(C)}$$$$	99.8	3.43
RNA1{m(A)[sp].m(G)[sp].m(A)[sp].m(U)[sp].m(C)[sp].d(T)[sp].d(G)[sp].d(G)[sp].d(C)[sp].d(A)[sp].d(G)[sp].d(C)[sp].d(C)[sp].d(C)[sp].d(A)[sp].m(U)[sp].m(C)[sp].m(A)[sp].m(A)[sp].m(C)}$$$$	55.4	1.89
RNA1{m(A)[sp].m(U)[sp].m(U)[sp].m(U)[sp].m(U)[sp].d(A)[sp].d(A)[sp].d(G)[sp].d(C)[sp].d(A)[sp].d(T)[sp].d(A)[sp].d(T)[sp].d(T)[sp].d(A)[sp].m(A)[sp].m(A)[sp].m(A)[sp].m(A)[sp].m(G)}$$$$	47	2.37
RNA1{m(C)[sp].m(A)[sp].m(A)[sp].m(U)[sp].m(G)[sp].d(G)[sp].d(G)[sp].d(A)[sp].d(G)[sp].d(A)[sp].d(A)[sp].d(T)[sp].d(A)[sp].d(A)[sp].d(A)[sp].m(G)[sp].m(C)[sp].m(A)[sp].m(G)[sp].m(C)}$$$$	73.7	2.5
RNA1{m(C)[sp].m(A)[sp].m(C)[sp].m(C)[sp].m(C)[sp].d(A)[sp].d(C)[sp].d(T)[sp].d(T)[sp].d(G)[sp].d(G)[sp].d(C)[sp].d(A)[sp].d(G)[sp].d(A)[sp].m(C)[sp].m(C)[sp].m(A)[sp].m(U)[sp].m(C)}$$$$	91.5	1.12
RNA1{m(C)[sp].m(A)[sp].m(G)[sp].m(A)[sp].m(U)[sp].d(A)[sp].d(G)[sp].d(C)[sp].d(A)[sp].d(C)[sp].d(C)[sp].d(T)[sp].d(T)[sp].d(C)[sp].d(A)[sp].m(G)[sp].m(C)[sp].m(A)[sp].m(C)[sp].m(U)}$$$$	126	3.22
RNA1{m(C)[sp].m(A)[sp].m(G)[sp].m(A)[sp].m(U)[sp].d(T)[sp].d(A)[sp].d(C)[sp].d(A)[sp].d(A)[sp].d(T)[sp].d(T)[sp].d(A)[sp].d(A)[sp].d(T)[sp].m(U)[sp].m(A)[sp].m(G)[sp].m(A)[sp].m(G)}$$$$	80.8	2.76
RNA1{m(C)[sp].m(A)[sp].m(U)[sp].m(A)[sp].m(U)[sp].d(T)[sp].d(A)[sp].d(A)[sp].d(A)[sp].d(A)[sp].d(A)[sp].d(G)[sp].d(G)[sp].d(A)[sp].d(A)[sp].m(A)[sp].m(C)[sp].m(U)[sp].m(A)[sp].m(A)}$$$$	108	2.31
RNA1{m(C)[sp].m(C)[sp].m(A)[sp].m(C)[sp].m(C)[sp].d(C)[sp].d(A)[sp].d(C)[sp].d(T)[sp].d(T)[sp].d(G)[sp].d(G)[sp].d(C)[sp].d(A)[sp].d(G)[sp].m(A)[sp].m(C)[sp].m(C)[sp].m(A)[sp].m(U)}$$$$	86.9	0.99
RNA1{m(C)[sp].m(G)[sp].m(A)[sp].m(A)[sp].m(U)[sp].d(G)[sp].d(A)[sp].d(A)[sp].d(T)[sp].d(T)[sp].d(A)[sp].d(A)[sp].d(A)[sp].d(A)[sp].d(G)[sp].m(U)[sp].m(U)[sp].m(U)[sp].m(A)[sp].m(A)}$$$$	104	3.01
RNA1{m(C)[sp].m(G)[sp].m(U)[sp].m(G)[sp].m(U)[sp].d(C)[sp].d(T)[sp].d(G)[sp].d(G)[sp].d(A)[sp].d(A)[sp].d(G)[sp].d(C)[sp].d(T)[sp].d(T)[sp].m(C)[sp].m(C)[sp].m(U)[sp].m(U)[sp].m(U)}$$$$	67	2.89
RNA1{m(C)[sp].m(U)[sp].m(C)[sp].m(A)[sp].m(U)[sp].d(T)[sp].d(A)[sp].d(T)[sp].d(A)[sp].d(T)[sp].d(T)[sp].d(T)[sp].d(A)[sp].d(C)[sp].d(T)[sp].m(A)[sp].m(A)[sp].m(A)[sp].m(G)[sp].m(C)}$$$$	93.5	3.46
RNA1{m(C)[sp].m(U)[sp].m(C)[sp].m(U)[sp].m(U)[sp].d(G)[sp].d(A)[sp].d(A)[sp].d(G)[sp].d(C)[sp].d(A)[sp].d(T)[sp].d(C)[sp].d(G)[sp].d(T)[sp].m(A)[sp].m(U)[sp].m(C)[sp].m(A)[sp].m(C)}$$$$	93.4	2.71
RNA1{m(C)[sp].m(U)[sp].m(U)[sp].m(A)[sp].m(U)[sp].d(A)[sp].d(A)[sp].d(T)[sp].d(T)[sp].d(A)[sp].d(T)[sp].d(T)[sp].d(G)[sp].d(C)[sp].d(A)[sp].m(A)[sp].m(G)[sp].m(U)[sp].m(G)[sp].m(A)}$$$$	74.9	2.78
RNA1{m(C)[sp].m(U)[sp].m(U)[sp].m(A)[sp].m(U)[sp].d(T)[sp].d(T)[sp].d(T)[sp].d(A)[sp].d(A)[sp].d(G)[sp].d(C)[sp].d(A)[sp].d(T)[sp].d(A)[sp].m(U)[sp].m(U)[sp].m(A)[sp].m(A)[sp].m(A)}$$$$	123	2.88
RNA1{m(C)[sp].m(U)[sp].m(U)[sp].m(G)[sp].m(G)[sp].d(T)[sp].d(G)[sp].d(T)[sp].d(C)[sp].d(G)[sp].d(G)[sp].d(C)[sp].d(T)[sp].d(G)[sp].d(G)[sp].m(U)[sp].m(C)[sp].m(A)[sp].m(G)[sp].m(A)}$$$$	79.8	2.15
RNA1{m(G)[sp].m(C)[sp].m(C)[sp].m(C)[sp].m(A)[sp].d(T)[sp].d(C)[sp].d(C)[sp].d(A)[sp].d(T)[sp].d(G)[sp].d(A)[sp].d(G)[sp].d(G)[sp].d(T)[sp].m(C)[sp].m(C)[sp].m(U)[sp].m(G)[sp].m(G)}$$$$	31.7	1.46
RNA1{m(G)[sp].m(C)[sp].m(C)[sp].m(G)[sp].m(C)[sp].d(T)[sp].d(T)[sp].d(T)[sp].d(T)[sp].d(C)[sp].d(T)[sp].d(G)[sp].d(T)[sp].d(C)[sp].d(T)[sp].m(G)[sp].m(G)[sp].m(U)[sp].m(U)[sp].m(C)}$$$$	70.5	2
RNA1{m(G)[sp].m(C)[sp].m(G)[sp].m(U)[sp].m(G)[sp].d(T)[sp].d(C)[sp].d(T)[sp].d(G)[sp].d(G)[sp].d(A)[sp].d(A)[sp].d(G)[sp].d(C)[sp].d(T)[sp].m(U)[sp].m(C)[sp].m(C)[sp].m(U)[sp].m(U)}$$$$	40.7	0.91
RNA1{m(G)[sp].m(C)[sp].m(U)[sp].m(U)[sp].m(A)[sp].d(T)[sp].d(T)[sp].d(T)[sp].d(T)[sp].d(A)[sp].d(A)[sp].d(G)[sp].d(C)[sp].d(A)[sp].d(T)[sp].m(A)[sp].m(U)[sp].m(U)[sp].m(A)[sp].m(A)}$$$$	41.1	1.9
RNA1{m(G)[sp].m(G)[sp].m(A)[sp].m(U)[sp].m(C)[sp].d(T)[sp].d(G)[sp].d(C)[sp].d(A)[sp].d(T)[sp].d(G)[sp].d(C)[sp].d(C)[sp].d(C)[sp].d(T)[sp].m(C)[sp].m(A)[sp].m(U)[sp].m(C)[sp].m(U)}$$$$	47.9	1.15
RNA1{m(G)[sp].m(G)[sp].m(C)[sp].m(C)[sp].m(A)[sp].d(T)[sp].d(C)[sp].d(T)[sp].d(C)[sp].d(T)[sp].d(G)[sp].d(C)[sp].d(T)[sp].d(T)[sp].d(C)[sp].m(U)[sp].m(U)[sp].m(G)[sp].m(G)[sp].m(U)}$$$$	35.9	0.82
RNA1{m(G)[sp].m(G)[sp].m(G)[sp].m(A)[sp].m(A)[sp].d(A)[sp].d(G)[sp].d(G)[sp].d(T)[sp].d(T)[sp].d(A)[sp].d(T)[sp].d(G)[sp].d(C)[sp].d(A)[sp].m(A)[sp].m(G)[sp].m(G)[sp].m(U)[sp].m(C)}$$$$	51.4	1.76
RNA1{m(G)[sp].m(G)[sp].m(G)[sp].m(U)[sp].m(C)[sp].d(C)[sp].d(A)[sp].d(C)[sp].d(C)[sp].d(A)[sp].d(C)[sp].d(T)[sp].d(A)[sp].d(G)[sp].d(C)[sp].m(C)[sp].m(A)[sp].m(G)[sp].m(U)[sp].m(A)}$$$$	33.5	1.18
RNA1{m(G)[sp].m(G)[sp].m(G)[sp].m(U)[sp].m(C)[sp].d(C)[sp].d(A)[sp].d(T)[sp].d(A)[sp].d(C)[sp].d(C)[sp].d(C)[sp].d(A)[sp].d(A)[sp].d(G)[sp].m(G)[sp].m(C)[sp].m(A)[sp].m(U)[sp].m(C)}$$$$	47.6	1.08
RNA1{m(G)[sp].m(G)[sp].m(U)[sp].m(C)[sp].m(C)[sp].d(A)[sp].d(T)[sp].d(A)[sp].d(C)[sp].d(C)[sp].d(C)[sp].d(A)[sp].d(A)[sp].d(G)[sp].d(G)[sp].m(C)[sp].m(A)[sp].m(U)[sp].m(C)[sp].m(C)}$$$$	105	1
RNA1{m(G)[sp].m(G)[sp].m(U)[sp].m(G)[sp].m(G)[sp].d(T)[sp].d(G)[sp].d(G)[sp].d(C)[sp].d(C)[sp].d(A)[sp].d(C)[sp].d(C)[sp].d(C)[sp].d(A)[sp].m(U)[sp].m(C)[sp].m(U)[sp].m(C)[sp].m(A)}$$$$	75.6	1.11
